Measured values taken from ChEMBL document CHEMBL1201862, “PubChem BioAssay data set” (2004).
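Exposure lasted 48 hours, with cells grown in 96-well plates and compounds tested at five concentrations. GI50 is the concentration that inhibits growth by half.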 Calls of active or inactive are those of the source. Cut-off read from the data, not from the text of the source: active = GI50 up to about 1.1 µM and inactive = higher.

How the values were obtained:
Experiment in all cases: inhibition of tumour cell growth, NCI panel, 48 h
[1] = test system: UACC-62
[2] = test system: DU-145
[3] = test system: NCI-H23
[4] = test system: A498
[5] = test system: KM12
[6] = test system: OVCAR-3
[7] = test system: HCT-15
[8] = test system: SK-MEL-2
[9] = test system: MDA-MB-435
[10] = test system: Malme-3M
[11] = test system: RPMI-8226
[12] = test system: OVCAR-5
[13] = test system: NCI-H460
[14] = test system: SK-MEL-5
[15] = test system: MOLT-4
[16] = test system: SW-620
[17] = test system: IGROV-1
[18] = test system: CCRF-CEM
[19] = test system: HCC 2998
[20] = test system: HL-60

SMILES	GI50 [1]	GI50 [2]	GI50 [3]	GI50 [4]	GI50 [5]	GI50 [6]	GI50 [7] [µM]	GI50 [8]	GI50 [9]	GI50 [10]	GI50 [11]	GI50 [12]	GI50 [13]	GI50 [14]	GI50 [15]	GI50 [16]	GI50 [17]	GI50 [18]	GI50 [19]	GI50 [20]
CCCCN(CCCC)C(=C(C(Cl)=C(Cl)Cl)[N+](=O)[O-])N(CCCC)CCCC	87.3 µM (inactive)	> 100 µM (inactive)	82.2 µM (inactive)	> 100 µM (inactive)	72.1 µM (inactive)	37.2 µM (inactive)	98.6	80.2 µM (inactive)	> 100 µM (inactive)	> 100 µM (inactive)	18.7 µM (inactive)	85.5 µM (inactive)	89.5 µM (inactive)	> 100 µM (inactive)						
CC(C)C1=CC(=O)C(C)(C2C(O)CC3(C)C4CC=C5C(CCC(OC6OC(CO)C(O)C(O)C6OC6OC(C)C(O)C(O)C6O)C5(C)C)C4(C)C(=O)CC23C)O1 (centres undefined)	> 100 µM (inactive)	> 100 µM (inactive)	> 100 µM (inactive)	> 100 µM (inactive)	> 100 µM (inactive)	> 100 µM (inactive)	> 100		> 100 µM (inactive)	> 100 µM (inactive)	> 100 µM (inactive)	> 100 µM (inactive)	> 100 µM (inactive)	> 100 µM (inactive)	> 100 µM (inactive)	> 100 µM (inactive)	> 100 µM (inactive)	> 100 µM (inactive)	> 100 µM (inactive)	
COC(=O)[C@]12CSC[C@H]1C[C@H](c1ccc(N(C)C)cc1)N2	> 100 µM (inactive)	> 100 µM (inactive)	> 100 µM (inactive)	> 28.1 µM (inactive)	> 100 µM (inactive)	> 100 µM (inactive)	> 100	> 100 µM (inactive)	> 100 µM (inactive)	> 100 µM (inactive)	> 31.6 µM (inactive)	> 100 µM (inactive)	> 100 µM (inactive)	> 100 µM (inactive)		> 100 µM (inactive)	> 100 µM (inactive)		> 100 µM (inactive)	
COc1cc(N(CCC#N)CCC#N)ccc1C(=N/NC(=O)c1cc(Br)ccc1O)/N=N/c1ccccc1	20 µM (inactive)	27.9 µM (inactive)	21.4 µM (inactive)		28.2 µM (inactive)	22 µM (inactive)	24.7	26.7 µM (inactive)	36.6 µM (inactive)	31.7 µM (inactive)	17.1 µM (inactive)	38.1 µM (inactive)	22.6 µM (inactive)	20.1 µM (inactive)	15.9 µM (inactive)	31.6 µM (inactive)	13.8 µM (inactive)	8.45 µM (inactive)	23.3 µM (inactive)	13.9 µM (inactive)
Cc1c(C)c2ccc(O)cc2[nH]c1=O	> 100 µM (inactive)	> 100 µM (inactive)	> 100 µM (inactive)	> 100 µM (inactive)	> 100 µM (inactive)	> 100 µM (inactive)	> 100	> 100 µM (inactive)	> 100 µM (inactive)		> 100 µM (inactive)	> 100 µM (inactive)	> 100 µM (inactive)	> 100 µM (inactive)	> 100 µM (inactive)	> 100 µM (inactive)	> 100 µM (inactive)	> 100 µM (inactive)	> 100 µM (inactive)	
C=C(C)CCC(=O)[C@](C)(O)[C@H]1[C@H](O)C[C@@]2(C)[C@@H]3CCc4c(cc(OC5OC(CO)C(O)C(O)C5O)c(O)c4C)C3(C)C(=O)C[C@]12C (some centres undefined)	> 100 µM (inactive)	> 100 µM (inactive)	> 100 µM (inactive)	> 100 µM (inactive)	> 100 µM (inactive)	> 100 µM (inactive)	> 100	> 100 µM (inactive)	> 100 µM (inactive)	> 100 µM (inactive)		> 100 µM (inactive)	> 100 µM (inactive)	> 100 µM (inactive)	> 100 µM (inactive)	> 100 µM (inactive)	> 100 µM (inactive)	> 100 µM (inactive)	> 100 µM (inactive)	
